# Patent US5830868A, “Substituted DI- and tripeptide inhibitors of protein: farnesyl transferase” (Warner-Lambert Company, priority 1996, dated 1998)
# Numbered stars: 1 amine (or outer) side, 2 acyl side, 3 side chain; on linkers, the order of the positions; unused ones are H or OH. Square brackets hold non-standard residues; d marks the D form. Peptide text beside a SMILES is read from it. * marks the point of attachment. His(τ-Me) = Cn1cnc(C[C@H](N)C(=O)O)c1; Hydrocinnamoyl = O=C(CCc1ccccc1)*; 3Pal = N[C@@H](Cc1cccnc1)C(=O)O; Cbz = O=C(OCc1ccccc1)*; CO = O=C([*:1])[*:2]; NHBn = c1ccc(CN*)cc1; Bn = c1ccc(C*)cc1
# Target: T1, rat brain farnesyl protein transferase (PFT) (Rattus norvegicus, UniProt Q02293+Q04631)
# T1 construct: 40-fold purified rat brain farnesyl protein transferase; from tissue; host or cells: rat brain
# T1 sequence (Q02293 whole entry, one chain of several): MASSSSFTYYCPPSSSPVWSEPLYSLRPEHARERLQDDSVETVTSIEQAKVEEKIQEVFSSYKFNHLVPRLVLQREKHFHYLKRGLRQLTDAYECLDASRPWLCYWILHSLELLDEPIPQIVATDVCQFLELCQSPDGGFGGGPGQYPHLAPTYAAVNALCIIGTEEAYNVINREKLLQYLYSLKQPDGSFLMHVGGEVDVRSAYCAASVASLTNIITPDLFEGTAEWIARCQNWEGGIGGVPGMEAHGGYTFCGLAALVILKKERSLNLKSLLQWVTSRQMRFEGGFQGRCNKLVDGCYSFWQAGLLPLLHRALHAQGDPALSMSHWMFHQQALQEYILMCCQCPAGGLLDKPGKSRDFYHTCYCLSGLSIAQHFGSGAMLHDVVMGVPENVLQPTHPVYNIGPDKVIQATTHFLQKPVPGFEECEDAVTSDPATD
# Test: PFT inhibitory activity assay (radiolabeled farnesyl pyrophosphate, biotinyl peptide, streptavidin beads)
# Assay type: biochemical
# Details: 40-fold purified rat brain enzyme; 0.12 μM [3H]FPP, 0.1 μM biotinyl-Ahe-Tyr-Lys-Cys-Val-Ile-Met; 37° C., 30 minutes; read-out: IC50 (μM) against PFT
# Experimental: The PFT inhibitory activity of compounds of Formula I was assayed in 30 mM potassium phosphate buffer, pH 7.4, containing 7 mM DTT, 1.2 mM MgCl2, 0.1 mM leupeptin, 0.1 mM pepstatin and 0.2 mM phenylmethylsulfonyl fluoride. Assays were performed in 96 well plates (Wallec) and employed solutions composed of varying concentrations of a compound of Formula I in 100% DMSO. Upon addition of both substrates, radiolabeled farnesyl pyrophosphate ([1-^3 H], specific activity 15--30 Ci/mmol, final concentration 0.12 μM) and (biotinyl)-Ahe-Tyr-Lys-Cys-Val-Ile-Met peptide (final concentration 0.1 μM), the enzyme reaction was started by addition of 40-fold purified rat brain farnesyl protein transferase. After incubation at 37° C. for 30 minutes, the reaction was terminated by diluting the reaction 2.5-fold with a stop buffer containing 1.5M magnesium acetate, 0.2M H3 PO4, 0.5% BSA, and strepavidin beads (Amersham) at a concentration of 1.3 mg/mL. After allowing the plate to settle for 30 minutes at room temperature, radioactivity was quantitated on a microBeta counter (model 1450, Wallec). Compounds of Formula I show IC50 values of 0.5 nM to 80 μM (see data table) in this assay and are thus valuable inhibitors of protein: farnesyl transferase enzyme which may be used in the medical treatment of tissue proliferative diseases, including cancer and restenosis.
row,IC50 [µM],Compound
1,0.26,"O=C(N[C@@H](Cc1c[nH]cn1)C(=O)N[C@@H](Cc1ccc(OCc2ccccc2)cc1)C(=O)N[C@@H](COCc1ccccc1)C(=O)O)OCc1ccccc1 [Example 7, N-[N-[N-[(Phenylmethoxy)carbonyl]-L-histidyl]-O-(phenylmethyl)-L-tyrosyl]-O-(phenylmethyl)-L-serine] (Cbz-His-Tyr(Bn)-Ser(Bn)-OH)"
2,1,"O=C(Nc1ccc(Oc2ccccc2)cc1)NC(Cc1c[nH]cn1)C(=O)NC(Cc1ccc(OCc2ccccc2)cc1)C(=O)NCCc1ccccc1 [5 (46), (4-PhOPh)NHCO--D--His--Tyr(OBn)--CONHCH2 CH2 Ph]"
3,0.37,C[C@@](Cc1ccc(OCc2ccccc2)cc1)(NC(=O)[C@@H](Cc1c[nH]cn1)NC(=O)OCc1ccccc1)C(=O)NCCOCc1ccccc1 [Example 22]
4,30,PhCH2 CH2 NHCO--D--His--Tyr(OBn)CONHCH2 CH2 [5 (27)]
5,11,"Cc1ccc(S(=O)(=O)N[C@@H](Cc2cnc[nH]2)C(=O)N[C@H](Cc2ccc(OCc3ccccc3)cc2)C(=O)N2CCN(Cc3ccccc3)CC2)cc1 (stereo in doubt) [Example 28, (S,R)-N-[1-(4-Benzyloxy-benzyl)-2-(4-benzyl-piperazin-1-yl)-2-oxo-ethyl]-3-(3H-imidazol-4-yl)-2-(toluene-4-sulfonylamino)-propionamide]"
6,0.42,"COC(=O)[C@H](COCc1ccccc1)NC(=O)[C@H](Cc1ccc(OCc2ccccc2)cc1)NC(=O)[C@H](Cc1c[nH]cn1)NC(=O)OCc1ccccc1 [Example 6, N-[N-[N-[(Phenylmethoxy)carbonyl]-L-histidyl]-O-(phenylmethyl)-L-tyrosyl]-O-(phenylmethyl)-L-serine, methyl ester] (Cbz-His-Tyr(Bn)-Ser(Bn)-OMe)"
7,0.82,"COC(=O)[C@H](COCc1ccccc1)NC(=O)[C@H](Cc1ccc(OCc2ccccc2)cc1)NC(=O)[C@H](Cc1c[nH]cn1)NC(=O)CCc1ccccc1 [Example 18, N-[N-[N-(1-Oxo-3-phenylpropyl)-L-histidyl]-O-(phenylmethyl)-L-tyrosyl]-O-(phenylmethyl)-L-serine. methyl ester] (Hydrocinnamoyl-His-Tyr(Bn)-Ser(Bn)-OMe)"
8,0.028,"CCNC(=O)[C@H](COCc1ccccc1)NC(=O)[C@H](Cc1ccc(OCc2ccccc2)cc1)NC(=O)[C@@H](Cc1c[nH]cn1)NC(=O)OCc1ccccc1 [Example 12, N-Ethyl-Nα -[N-[N-[(Phenylmethoxy)carbonyl]-D-histidyl]-O-(phenylmethyl)-L-tyrosyl]-O-(phenylmethyl)-L-serinamide] (Cbz-[dH]-Tyr(Bn)-Ser(Bn)-NHEt)"
9,0.039,"COC(=O)[C@H](COCc1ccccc1)NC(=O)[C@H](Cc1ccc(OCc2ccccc2)cc1)NC(=O)[C@H](Cc1c[nH]cn1)NC(=O)NCc1ccccc1 [Example 17, N-[O-(Phenylmethyl)-N[N-[[(Phenylmethyl)amino]-carbonyl]-L-histidyl]-L-tyrosyl]-O-(phenylmethyl)-serine, methyl ester] ({NHBn-CO}-His-Tyr(Bn)-Ser(Bn)-OMe)"
10,1.1,"O=C(Nc1cccc2ccccc12)N[C@H](Cc1c[nH]cn1)C(=O)N[C@@H](Cc1ccc(OCc2ccccc2)cc1)C(=O)NCCOCc1ccccc1 [5 (56), 1-napthyl-NHCO--D--His--Tyr(OBn)CONHCH2 CH2 OBn]"
11,66,"O=C(NC1CCCCC1)N[C@H](Cc1c[nH]cn1)C(=O)N[C@@H](Cc1ccc(OCc2ccccc2)cc1)C(=O)NCc1ccccc1 [5 (35), c-hexyl-NHCO--D--His--Tyr(OBn)CONHCH2 Ph]"
12,1,"CCOc1ccc(NC(=O)NC(Cc2cnc[nH]2)C(=O)NC(Cc2ccc(OCc3ccccc3)cc2)C(=O)NCCCOc2ccccc2)cc1 (stereo not drawn) [5 (63), (4-EtOPh)NHCO--His--Tyr(OBn)CONHCH2 CH2 CH2 OPh]"
13,73,"O=C(Cc1ccccc1)N[C@H](Cc1c[nH]cn1)C(=O)N[C@@H](Cc1ccc(OCc2ccccc2)cc1)C(=O)N1CCN(Cc2ccccc2)CC1 [5 (30), PhCH2 CO--D--His--Tyr(OBn)CO(4-Bn-piperazin-1-yl)]"
14,0.48,"COc1ccccc1CCCNC(=O)C(Cc1ccc(OCc2ccccc2)cc1)NC(=O)C(Cc1c[nH]cn1)NC(=O)Cc1ccccc1 [5 (69), PhCH2 CO--D--His--Tyr(OBn)CONH(CH2)3 --(2-MeO--Ph)]"
15,1,"COC(=O)[C@H](Cc1cccnc1)NC(=O)[C@H](Cc1ccc(OCc2ccccc2)cc1)NC(=O)[C@H](Cc1c[nH]cn1)NC(=O)OCc1ccccc1 [Example 24, N-[N-[N-[(Phenylmethoxy)carbonyl]-L-histidyl]-O-(phenylmethyl)-L-tyrosyl]-3-(3-pyridinyl)-L-alanine, methyl ester] (Cbz-His-Tyr(Bn)-[3Pal]-OMe)"
16,7.3,"CCCCNC(=O)NC(Cc1cnc[nH]1)C(=O)NC(Cc1ccc(OCc2ccccc2)cc1)C(=O)NCCCCc1ccccc1 [5 (4), BuNHCO--D--His--Tyr(OBn)--CONH(CH2)4 Ph]"
17,0.083,"COC(=O)[C@H](COCc1ccccc1)NC(=O)[C@H](Cc1ccc(OCc2ccccc2)cc1)NC(=O)[C@H](Cc1cn(C)cn1)NC(=O)OCc1ccccc1 [Example 13, N-[N-[1-Methyl-N-[(phenylmethoxy)carbonyl]l-L-histidyl]-O-(phenylmethyl)-L-tyrosyl]-O-(phenylmethyl)-L-serine. methyl ester] (Cbz-[His(τ-Me)]-Tyr(Bn)-Ser(Bn)-OMe)"
18,4.4,"NC(=O)[C@H](COCc1ccccc1)NC(=O)[C@H](Cc1ccc(OCc2ccccc2)cc1)NC(=O)[C@H](Cc1c[nH]cn1)NC(=O)OCc1ccccc1 [Example 1, Nα -[N-[N-[(Phenylmethoxy)carbonyl]-L-histidyl]-O-(phenylmethyl)-L-tyrosyl]-O-(phenylmethyl)-L-serinamide] (Cbz-His-Tyr(Bn)-Ser(Bn)-NH2)"
19,1.6,"O=C(CCc1ccccc1)NC(Cc1c[nH]cn1)C(=O)NC(Cc1ccc(OCc2ccccc2)cc1)C(=O)NCc1ccccc1 [5 (80), PhCH2 CH2 CO--D--His--Tyr(OBn)CONHCH2 Ph]"
20,3,"CC(C)NC(=O)N[C@H](Cc1c[nH]cn1)C(=O)N[C@@H](Cc1ccc(OCc2ccccc2)cc1)C(=O)NCCCCc1ccccc1 [5 (79), (CH3)2 CHNHCO--D--His--Tyr(OBn)CONHCH2 CH2 CH2 CH2 Ph]"
21,0.27,"COC(=O)[C@@H](COCc1ccccc1)NC(=O)[C@H](Cc1ccc(OCc2ccccc2)cc1)NC(=O)[C@H](Cc1c[nH]cn1)NC(=O)OCc1ccccc1 [Example 9, N-[N-[N-[(Phenylmethoxy)carbonyl]-L-histidyl]-O-(phenylmethyl)-L-tyrosyl]-O-(phenylmethyl)-D-serine, methyl ester] (Cbz-His-Tyr(Bn)-[dS](Bn)-OMe)"
22,1.4,"O=C(Nc1cccc2ccccc12)N[C@H](Cc1c[nH]cn1)C(=O)N[C@@H](Cc1ccc(OCc2ccccc2)cc1)C(=O)NCc1ccccc1 [5 (60), 1-napthyl-NHCO--D--His--Tyr(OBn)CONHCH2 Ph]"
23,2.1,"O=C(Nc1ccccc1)NC(Cc1c[nH]cn1)C(=O)NC(Cc1ccc(OCc2ccccc2)cc1)C(=O)NCCCOc1ccccc1 [5 (3), PhNHCO--D--His--Tyr(OBn)--CONHCH2 CH2 CH2 OPh]"
24,0.17,"CCNC(=O)[C@H](COCc1ccccc1)NC(=O)[C@H](Cc1ccc(OCc2ccccc2)cc1)NC(=O)[C@H](Cc1c[nH]cn1)NC(=O)OCc1ccccc1 [Example 11, N-Ethyl-Nα -[N-[N-[(phenylmethoxy)carbonyl]-L-histidyl]-O-(phenylmethyl)-L-tyrosyl]-O-(phenylmethyl)-L-serinamide] (Cbz-His-Tyr(Bn)-Ser(Bn)-NHEt)"
25,1.9,"O=C(CCc1ccccc1)N[C@H](Cc1c[nH]cn1)C(=O)N[C@@H](Cc1ccc(OCc2ccccc2)cc1)C(=O)NCCOCc1ccccc1 [5 (36), PhCH2 CH2 CO--D--His--Tyr(OBn)CONHCH2 CH2 OBn]"
26,0.75,"CC(C)NC(=O)NC(Cc1cnc[nH]1)C(=O)NC(Cc1ccc(OCc2ccccc2)cc1)C(=O)NCc1ccccc1 [5 (40), (CH3)2 CHNHCO--D--His--Tyr(OBn)CONHCH2 Ph]"
27,3.7,"CCOc1ccc(NC(=O)N[C@@H](Cc2cnc[nH]2)C(=O)N[C@H](Cc2ccc(OCc3ccccc3)cc2)C(=O)NCCCOc2ccccc2)cc1 (stereo in doubt) [Example 25, (S,R)-N-[2-(4-Benzyloxy-phenyl)-1-(3-phenoxy-propylcarbamoyl)-ethyl]-2-[3-(4-ethoxy-phenyl)-ureido]-3-(3H-imidazol-4-yl)-propionamide]"
28,0.73,"COC(=O)C(CCSC)NC(=O)C(Cc1ccc(OCc2ccccc2)cc1)NC(=O)C(Cc1cnc[nH]1)NC(=O)NCCc1ccccc1 [5 (28), PhCH2 CH2 NHCO--D--His--Tyr(OBn)CONH--Met--CO2 Me]"
29,2.9,"COc1ccccc1CCCNC(=O)[C@H](Cc1ccc(OCc2ccccc2)cc1)NC(=O)[C@@H](Cc1c[nH]cn1)NS(=O)(=O)c1ccc(C)cc1 [5 (49), (4-MePh)SO2 --D--His--Tyr(OBn)--CONHCH2 CH2 CH2 --(2-MeO--Ph)]"
30,1.7,"O=C(NC(Cc1c[nH]cn1)C(=O)NC(Cc1ccc(OCc2ccccc2)cc1)C(=O)NCCCCc1ccccc1)OCc1ccccc1 [5 (64), BnOCO--D--His--Tyr(OBn)CONHCH2 CH2 CH2 CH2 Ph]"
